Reference: patent US5120736A, “4-methyl-5-(2-(4-phenylpiperazin-1-yl)ethyl)thiazole derivatives their method of preparation and the pharmaceutical compositions in which they are present” (Institut de Recherches Chimiques et Biologiques Appliquees, priority 1988, dated 1992)
Read-outs that look alike come from different tables or passages of the source.

Columns and labels:
[1] = Acute toxicity in mice, single oral administration; conditions: mouse, in vivo, male mice, 14 days observation, read-out: LD50 (50 percent lethal dose)
Method: 1) Acute toxicity in mice:
Principle of the measurement
The products were administered orally, in a single dose, to male mice with an average weight of 22 g. The mortality was recorded after an observation period of 14 days.
The results are expressed in the form of the 50% lethal dose (LD50), i.e. the theoretical dose in mg.kg^-1, administered orally, which causes the death of 50% of the animals.

[2] = molecular target: T1, post-synaptic alpha-adrenergic receptors (isolated rat vas deferens) (Rattus norvegicus, UniProt P43140); experiment: alpha-blocking activity towards norepinephrine on isolated rat vas deferens; conditions: norepinephrine contraction, read-out: pA2 (converted)
T1 construct: isolated rat vas deferens; from tissue; host or cells: isolated rat vas deferens
T1 sequence (P43140 1-466): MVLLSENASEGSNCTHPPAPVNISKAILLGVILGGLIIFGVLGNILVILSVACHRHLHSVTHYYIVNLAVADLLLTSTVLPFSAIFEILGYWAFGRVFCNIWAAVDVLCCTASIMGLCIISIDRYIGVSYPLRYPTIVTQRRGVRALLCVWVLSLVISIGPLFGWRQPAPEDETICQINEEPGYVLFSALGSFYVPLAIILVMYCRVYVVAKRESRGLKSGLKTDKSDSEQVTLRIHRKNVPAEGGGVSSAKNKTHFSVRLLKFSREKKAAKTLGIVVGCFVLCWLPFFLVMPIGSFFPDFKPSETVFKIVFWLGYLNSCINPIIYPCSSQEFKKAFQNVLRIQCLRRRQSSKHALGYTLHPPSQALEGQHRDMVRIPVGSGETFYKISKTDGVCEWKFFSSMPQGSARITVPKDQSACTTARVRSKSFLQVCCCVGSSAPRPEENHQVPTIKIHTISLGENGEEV
Method: 2) Determination of the alpha-blockinq activity on isolated rat vas deferens
(§1) a) Principle of the measurement
Stimulation of the post-synaptic alpha-adrenergic receptors by norepinephrine causes contraction of the isolated vas deferens.
The concentration of product in whose presence the norepinephrine concentration must be doubled to obtain the same effect as in the absence of said product is determined.
The logarithm of this concentration, with its sign changed, constitutes the pA2 of the products.

[3] = test system: lethal effect of norepinephrine; experiment: adrenolytic activity in vivo in rats towards the lethal effect of norepinephrine; conditions: Rattus norvegicus
Method: 3) Determination of the adrenolytic activity "in vivo" in rats:
as §1
The intravenous injection of norepinephrine (0.4 mg.kg^-1) into wake rats causes the death of 100% of the animals. The prior administration of a substance with an alpha-blocking property enables this toxicity to be reduced.
The results are expressed in the form of the 50% effective dose (ED50), i.e. the dose in mg.kg^-1 which protects 50% of the animals.

[4] = test system: increase in ureteral pressure induced by norepinephrine; experiment: inhibitory action on the increase in ureteral pressure induced in rabbits by intravenous norepinephrine; format: in vivo, anesthetized male rabbits; conditions: for ED50: Oryctolagus cuniculus, iv, norepinephrine-induced ureteral hyperpressure, read-out: ID50 (50 percent inhibitory dose)
Method: 4) Determination of the inhibitory action of the compounds towards the increase in ureteral pressure induced in rabbits by the intravenous administration of norepinephrine
as §1
The ureteral pressure is measured by catheterization of the prostatic ureter of anesthetized male rabbits. The increase in ureteral pressure is induced by an intravenous injection of norepinephrine. This hyperpressure can be inhibited by the prior administration of molecules with alpha-blocking potential.
These are shown in Table 5 in the form of the 50% inhibitory dose (ID50), which is defined as being the dose of product which, when administered intravenously, causes a 50% inhibition of the ureteral hyperpressure induced by norepinephrine.

[5] = oral, norepinephrine 0.4 mg.kg^-1 i.v., read-out: ED50 (50 percent effective dose)

Question: What does the source list for Cc1ncsc1CCN1CCN(c2ccccc2OCC(C)C)CC1 [B 1422]?
Answer: LD50 at 336 h [1]: > 1000 mg/kg; Kb [2]: 36.3 nM; ED50 [3, 5]: 1.6 mg/kg

Question: Which LD50 at 336 h [1] does the source give for CCCCOc1ccccc1N1CCN(CCc2scnc2C)CC1.Cl [B 1341, 4-methyl-5-[2-(4-o-butoxyphenylpiperazin-1-yl)ethyl]thiazole monohydrochloride] here?
Answer: Its LD50 at 336 h is greater than 1000 mg/kg.

Question: And the Kb [2]?
Answer: The Kb was 10 nM.

Question: And the ED50 [3, 5]?
Answer: Its ED50 is 1 mg/kg.

Question: What about the ED50 [4] of the same molecule?
Answer: Its ED50 is 0.39 mg/kg.

Question: What does the source list for CCCCCOc1ccccc1N1CCN(CCc2scnc2C)CC1.Cl [B 1357, 4-methyl-5-[2-(4-o-pentoxyphenylpiperazin-1-yl)ethyl]thiazole monohydrochloride]?
Answer: LD50 at 336 h [1]: > 1000 mg/kg; Kb [2]: 17 nM; ED50 [3, 5]: 1.8 mg/kg; ED50 [4]: 0.46 mg/kg

Question: Which LD50 at 336 h [1] does the source give for COc1ccccc1N1CCN(CCc2scnc2C)CC1.Cl.Cl.Cl [B 1433, 4-methyl-5-[2-(4-o-methoxyphenylpiperazin-1-yl)ethyl]thiazole trihydrochloride] here?
Answer: The LD50 at 336 h was greater than 1000 mg/kg.

Question: And the Kb [2]?
Answer: Its Kb is 14.5 nM.

Question: What about the ED50 [3, 5] of the same molecule?
Answer: The ED50 was 2.66 mg/kg.

Question: And the ED50 [4]?
Answer: Its ED50 is 0.3 mg/kg.

Question: With Cc1ncsc1CCN1CCN(c2ccccc2OCCC(C)C)CC1 [B 1423] as the molecule, how does the LD50 at 336 h [1] read?
Answer: The LD50 at 336 h was greater than 1000 mg/kg.

Question: What about the Kb [2] of the same molecule?
Answer: The Kb was 45.7 nM.

Question: And the ED50 [3, 5]?
Answer: Its ED50 is 2.35 mg/kg.

Question: What does the source list for Cc1ncsc1CCN1CCN(c2ccccc2OCC(C)(C)C)CC1 [B 1424]?
Answer: LD50 at 336 h [1]: > 1000 mg/kg; Kb [2]: 200 nM; ED50 [3, 5]: 2.04 mg/kg

Question: Which LD50 at 336 h [1] does the source give for CCCOc1ccccc1N1CCN(CCc2scnc2C)CC1 [B 1359] here?
Answer: Its LD50 at 336 h is greater than 1000 mg/kg.

Question: What about the Kb [2] of the same molecule?
Answer: The Kb was 57.5 nM.

Question: What about the ED50 [3, 5] of the same molecule?
Answer: The ED50 was 1.93 mg/kg.

Question: Which results are given for CCOc1ccccc1N1CCN(CCc2scnc2C)CC1.Cl.Cl.Cl [B 1211, 4-methyl-5-[2-(4-o-ethoxyphenylpiperazin-1-yl)ethyl]thiazole trihydrochloride]?
Answer: LD50 at 336 h [1]: > 1000 mg/kg; Kb [2]: 26.3 nM; ED50 [3, 5]: 2 mg/kg; ED50 [4]: 0.16 mg/kg

Question: Which LD50 at 336 h [1] does the source give for Cc1ncsc1CCN1CCN(c2ccccc2OC(C)C)CC1.Cl [B 1398, 4-methyl-5-[2-(4-o-isopropoxyphenylpiperazin-1-yl)ethyl]thiazole monohydrochloride] here?
Answer: The LD50 at 336 h was greater than 1000 mg/kg.

Question: And the Kb [2]?
Answer: The Kb was 17 nM.

Question: And the ED50 [3, 5]?
Answer: Its ED50 is 0.44 mg/kg.

Question: What about the ED50 [4] of the same molecule?
Answer: Its ED50 is 0.09 mg/kg.

Question: And the “effectiveness against ureteral hyperpressure (in words)” value ([4]; i.v., in words)?
Answer: Its value is “remarkably effective”.

Question: Which ED50 ([3]; po, prior-art compound, under the same conditions, read-out: ED50) does the source give for Cc1ncsc1CCN1CCN(c2ccccc2)CC1 [4-methyl-5-[2-(4-phenylpiperazin-1-yl)ethyl]thiazole, reference compound] here?
Answer: The ED50 was 8.7 mg/kg.

Question: For Cc1ncsc1CCN1CCN(c2ccccc2O)CC1.Cl.Cl [B 1302, 4-methyl-5-[2-(4-o-hydroxyphenylpiperazin-1-yl)ethyl]thiazole dihydrochloride], which LD50 at 336 h [1] is on record?
Answer: Its LD50 at 336 h is 490 mg/kg.

Question: What about the Kb [2] of the same molecule?
Answer: The Kb was 126 nM.

Question: And the ED50 [3, 5]?
Answer: The ED50 was 4 mg/kg.

Question: And the ED50 [4]?
Answer: Its ED50 is 0.44 mg/kg.

Question: For Cc1ncsc1CCN1CCN(c2ccccc2OCc2ccccc2)CC1 [B 1425], which LD50 at 336 h [1] is on record?
Answer: Its LD50 at 336 h is greater than 1000 mg/kg.

Question: And the Kb [2]?
Answer: Its Kb is 63.1 nM.

Question: And the ED50 [3, 5]?
Answer: The ED50 was 5 mg/kg.
